The record followed here is BindingDB's records for doi:10.1021/jm00018a006 (University of Arizona, 1995).

*1 amine or outer side, *2 acyl side, *3 side chain or, on linkers, in order; H or OH if unused. Where a SMILES comes first, the peptide text is derived from it. Side-chain parts run from the residue outwards. [ ]: non-standard residue; d: D form. X4 = CC(C)C[C@@H](CN([C@@H](CCCN=C(N)N)C(=O)[*:2])[*:1])N[*:3]

The target in this experiment is Delta-type opioid receptor (Cavia porcellus). Briefly: Binding affinity against delta opioid receptor of Guinea pig brain homogenate using [3H]c[D-Pen2,p-Cl-Phe4,D-Pen5]enkephalin.
A word on the IC50: it is the concentration at which inhibition is half-maximal. Low values mean higher potency, high ones lower potency. `CC[C@H](C)[C@H](NC(=O)[C@H](CCCN=C(N)N)NC(=O)[C@H](CCCN=C(N)N)NC(=O)[C@H](CC(C)C)NC(=O)[C@H](Cc1ccccc1)NC(=O)CNC(=O)CNC[C@@H](N)Cc1ccc(O)cc1)C(=O)N[C@@H](CCCN=C(N)N)C(=O)N1CCC[C@H]1C(=O)N[C@@H](CCCCN)C(N)=O`: the IC50 amounted to 198 nM.
On to `CC[C@H](C)[C@H](NC(=O)[C@H](CCCN=C(N)N)NC[C@H](CCCCN)NC(=O)[C@H](CC(C)C)NC(=O)[C@H](Cc1ccccc1)NC(=O)CNC(=O)CNC(=O)[C@@H](N)Cc1ccc(O)cc1)C(=O)N[C@@H](CCCN=C(N)N)C(=O)N1CCC[C@H]1C(=O)N[C@@H](CCCCN)C(N)=O`, for which the IC50 was determined as 53 nM.
With `CC[C@H](C)[C@H](NC(=O)[C@H](CCCN=C(N)N)NC(=O)[C@H](CCCN=C(N)N)NC[C@H](CC(C)C)NC(=O)[C@H](Cc1ccccc1)NC(=O)CNC(=O)CNC(=O)[C@@H](N)Cc1ccc(O)cc1)C(=O)N[C@@H](CCCN=C(N)N)C(=O)N1CCC[C@H]1C(=O)N[C@@H](CCCCN)C(N)=O` (H-[X4]([Phe-Gly-Gly-Tyr])RIRPK-NH2) the figure was 32 nM.
